What was measured:
Test in all cases: relative viability (nuclei count vs DMSO), 5 days (fraction); higher = more cells survive
VE-821 + Pemetrexed = compound: CS(=O)(=O)c1ccc(-c2cnc(N)c(C(=O)Nc3ccccc3)n2)cc1 [VE-821] + Nc1nc2[nH]cc(CCc3ccc(C(=O)N[C@@H](CCC(=O)O)C(=O)O)cc3)c2c(=O)[nH]1 [Pemetrexed] (partner 0.2 µM)
Summary of the method: (§1)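 Cells from lung cancer lines were seeded into 1536-well plates and, one day later, dosed by pin tool. Treatments were either a single drug or a fixed dose of an anchor drug with five library-drug doses (not always all listed) in √10 steps. After 5 days, nuclei were stained in a one-step fixation (final 0.05% Triton X-100, 1% formaldehyde, 1 ug/ml Hoechst) and counted on 4× images, and relative viability is the treated-to-vehicle nuclei ratio, as the median of duplicate plates.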

VE-821 + Vorinostat = compound: CS(=O)(=O)c1ccc(-c2cnc(N)c(C(=O)Nc3ccccc3)n2)cc1 [VE-821] + O=C(CCCCCCC(=O)Nc1ccccc1)NO [Vorinostat] (partner 1 µM)
Summary of the method: as §1

Ruxolitinib + Tozasertib = compound: N#CC[C@H](C1CCCC1)n1cc(-c2ncnc3[nH]ccc23)cn1 [Ruxolitinib] + Cc1cc(Nc2cc(N3CCN(C)CC3)nc(Sc3ccc(NC(=O)C4CC4)cc3)n2)n[nH]1 [Tozasertib] (partner 0.1 µM)
Summary of the method: as §1

Ruxolitinib + Olaparib = compound: N#CC[C@H](C1CCCC1)n1cc(-c2ncnc3[nH]ccc23)cn1 [Ruxolitinib] + O=C(c1cc(Cc2n[nH]c(=O)c3ccccc23)ccc1F)N1CCN(C(=O)C2CC2)CC1 [Olaparib] (partner 8 µM)
Summary of the method: as §1

Cell Line | relative viability (VE-821 + Pemetrexed; first compound 0.08 µM) | relative viability (VE-821 + Pemetrexed; first compound 0.8 µM) | relative viability (VE-821 + Pemetrexed; first compound 2.53 µM) | relative viability (VE-821 + Pemetrexed; first compound 8 µM) | relative viability (VE-821 + Vorinostat; first compound 0.08 µM) | relative viability (VE-821 + Vorinostat; first compound 0.8 µM) | relative viability (VE-821 + Vorinostat; first compound 2.53 µM) | relative viability (VE-821 + Vorinostat; first compound 8 µM) | relative viability (Ruxolitinib + Tozasertib; first compound 0.253 µM) | relative viability (Ruxolitinib + Tozasertib; first compound 0.8 µM) | relative viability (Ruxolitinib + Tozasertib; first compound 2.53 µM) | relative viability (Ruxolitinib + Tozasertib; first compound 8 µM) | relative viability (Ruxolitinib + Olaparib; first compound 0.08 µM) | relative viability (Ruxolitinib + Olaparib; first compound 0.253 µM) | relative viability (Ruxolitinib + Olaparib; first compound 0.8 µM) | relative viability (Ruxolitinib + Olaparib; first compound 2.53 µM) | relative viability (Ruxolitinib + Olaparib; first compound 8 µM) | relative viability (Ruxolitinib + Tozasertib; first compound 0.08 µM) | relative viability (VE-821 + Pemetrexed; first compound 0.253 µM) | relative viability (VE-821 + Vorinostat; first compound 0.253 µM)
NCI-H1648 | 0.977 | 0.569 | 0.63 | 0.611 | 0.483 | 0.485 | 0.532 | 0.641 | 0.414 | 0.747 | 0.878 | 1.14 | 0.854 | 0.852 | 1.11 | 1.35 | 1.18 | – | – | –
NCI-H1623 | – | – | – | – | – | – | – | – | 0.485 | 0.49 | 0.49 | 0.479 | – | – | – | – | – | 0.488 | – | –
NCI-H661 | 0.979 | 0.84 | 0.744 | 0.571 | 0.839 | 0.815 | 0.783 | 0.627 | 0.354 | 0.365 | 0.363 | 0.352 | 0.771 | 0.81 | 0.735 | 0.808 | 0.614 | 0.358 | 0.923 | 0.836
NCI-H596 | 0.511 | 0.485 | 0.454 | 0.374 | 0.703 | 0.604 | 0.557 | 0.51 | 0.897 | 0.962 | 0.955 | 0.799 | 0.761 | 0.71 | 0.844 | 0.696 | 0.751 | 0.827 | 0.48 | 0.579
IA-LM | – | – | – | – | 0.951 | 0.941 | 1.26 | 0.903 | – | – | – | – | 0.98 | 0.867 | 0.805 | 0.819 | 0.669 | – | – | 0.976
